# From US20150322094A1, “USE OF SUBSTITUTED 2,3-DIHYDRO-1-BENZOFURAN-4-CARBOXYLIC ACIDS OR SALTS THEREOF AS ACTIVE SUBSTANCES AGAINST ABIOTIC PLANT STRESS” (Bayer CropScience AG, priority 2012, published 2015)
# Key:
# Format in all cases: in vivo
# [1] = test system: TRZAS (Triticum aestivum); experiment: Cold stress, spray application, climate-controlled chamber test; conditions: averages from one to three independent trials
# Description: (§1) Seeds of monocotyledonous and dicotyledonous crop plants were laid out in sandy loam in plastic pots, covered with soil or sand and cultivated in a greenhouse under good growth conditions until the early leaf stage (BBCH12). The trial plants were then likewise treated at the early leaf stage. To assure uniform water supply before commencement of stress, the potted plants were supplied with water by dam irrigation prior to substance application. The inventive compounds, formulated in the form of wettable powders (WP), were sprayed onto the green parts of the plants as an aqueous suspension at an equivalent water application rate of 300 I/ha with addition of 0.2% wetting agent (e.g. agrotin). Substance application was followed immediately by stress treatment of the plants. For this purpose, the plants in question were transferred into a climate-controlled chamber and, after a wait period of 24 h, subjected to a cold stress profile with the following conditions: • 1) “Morning” warm-up phase from 2 to 16° C. for 5 hours • 2) “Day” at 16° C. for 6 hours • 3) “Evening” cool-down phase from 16 to 2° C. for 7 hours • 4) “Night” at 2° C. for 6 hours
# (§2) Over the entire trial period, both the stressed trial plants and the control plants were supplied with the same amount of water which enabled good growth under control conditions. For this purpose, the unstressed control plants which served as a comparison were kept in a greenhouse under good growth conditions and observing the following conditions: • 1) “Day”: 14 hours with illumination at 22° C. • 2) “Night”: 10 hours without illumination at 12° C.
# (§3) After a period of two weeks of the cold stress profile, the stress phase was ended, and there followed a recovery phase of about three weeks, during which the plants were once again kept in a greenhouse under good growth conditions. In order to rule out any influence of the effects observed by any fungicidal or insecticidal action of the test compounds, it was additionally ensured that the tests proceeded without fungal infection or insect infestation.
# (§4) After the recovery phase had ended, the intensities of damage were analysed in visual comparison to untreated, unstressed controls for the same age. The intensity of damage was first recorded as a percentage (100%=plants have died, 0%=like control plants). These values were then used to calculate the efficacy of the test compounds (=percentage reduction in the intensity of damage as a result of substance application) by the following formula: […]
# (§5) DVus: damage value of the untreated, stressed control
# (§6) DVts: damage value of the plants treated with test compound
# (§7) In each trial, 8 pots per crop and dosage were treated and evaluated; the resulting efficacies are therefore averages. The values in tables B-1 and B-2 below are again averages from one to three independent trials.
# [2] = test system: ZEAMX (Zea mays); experiment: as above; conditions: averages from one to three independent trials
# Description: as §1, §2, §3, §4, §5, §6, §7
# [3] = test system: BRSNS (Brassica napus); experiment: Drought stress, spray application, greenhouse pot test; conditions: evaluated after recovery phase
# Experimental: (§8) Seeds of monocotyledonous and dicotyledonous crop plants were laid out in sandy loam in wood-fiber pots, covered with soil or sand and cultivated in a greenhouse under good growth conditions. The test plants were treated at the early leaf stage (BBCH10-BBCH13). To assure uniform water supply before commencement of stress, the potted plants were supplied with water by dam irrigation prior to substance application. The inventive compounds, formulated in the form of wettable powders (WP), were sprayed onto the green parts of the plants as an aqueous suspension at an equivalent water application rate of 600 l/ha with addition of 0.2% wetting agent (e.g. agrotin). Substance application was followed immediately by stress treatment of the plants. For this purpose, the pots were transferred into plastic inserts in order to prevent them from subsequently drying out too quickly.
# (§9) Drought stress was induced by gradual drying out under the following conditions:
# (§10) “Day”: 14 hours with illumination at 26° C.
# (§11) “Night”: 10 hours without illumination at 18° C.
# (§12) The duration of the respective stress phases was guided mainly by the state of the untreated, stressed control plants and thus varied from crop to crop. It was ended (by re-irrigating and transfer to a greenhouse with good growth conditions) as soon as irreversible damage was observed on the untreated, stressed control plants. In the case of dicotyledonous crops, for example oilseed rape and soya, the duration of the drought stress phase varied between 3 and 6 days, in the case of monocotyledonous crops, for example wheat, barley or corn, between 6 and 11 days.
# (§13) The end of the stress phase was followed by an approx. 5-7-day recovery phase, during which the plants were once again kept under good growth conditions in a greenhouse.
# (§14) In order to rule out any influence of the effects observed by any fungicidal or insecticidal action of the test compounds, it was additionally ensured that the tests proceeded without fungal infection or insect infestation.
# as §4, §5, §6
# (§15) In each trial, 3 pots per crop and dosage were treated and evaluated; the resulting efficacies are thus averages. The values in tables A-1, A-2 and A-3 below are again averages from one to three independent trials.
# [4] = test system: TRZAS (Triticum aestivum); experiment: as above; conditions: average of one to three independent trials
# Experimental: as §8, §9, §10, §11, §12, §13, §14, §4, §5, §6, §15
# [5] = test system: ZEAMX (Zea mays); experiment: as above; conditions: average of one to three independent trials
# Experimental: as §8, §9, §10, §11, §12, §13, §14, §4, §5, §6, §15
SMILES,EF (BRSNS): efficacy = percentage reduction in the intensity of damage ([3]; dosage 2.5 g/ha),"EF (TRZAS): efficacy, percentage reduction in the intensity of damage ([4]; dosage 25 g/ha)","EF (ZEAMX): efficacy, percentage reduction in the intensity of damage ([5]; dosage 25 g/ha)",further results
CCOC(=O)c1c(O)ccc2c1CC(c1ccc(OC)cc1)O2 (centres unmarked) [I.4-4],>5%,>5%,>5%,"EF (TRZAS): efficacy, percentage reduction in the intensity of damage ([1]; dosage 25 g/ha): >5%; EF (ZEAMX): efficacy, percentage reduction in the intensity of damage ([2]; dosage 6.25 g/ha): >5%"
COC(=O)c1c(O)ccc2c1C(C)C(c1ccc(OC)cc1)O2 (centres unmarked) [I.1-20],>5%,–,–,–
COC(=O)c1c(O)ccc2c1CC(C)(c1ccc(C)cc1)O2 (centres unmarked) [I.1-44],>5%,–,>5%,–
"COC(=O)c1c(OC(=O)C2CCC2)ccc2c1CC(c1ccc(OC)cc1)O2 (centres unmarked) [I.6-4, Methyl 5-[(cyclobutylcarbonyl)oxy]-2-(4-methoxyphenyl)-2,3-dihydro-1-benzofuran-4-carboxylate]",–,>5%,–,EF (BRSNS): efficacy = percentage reduction in the intensity of damage ([3]; dosage 25 g/ha): >5%
COC(=O)c1c(OC(C)=O)ccc2c1CC(c1ccc(OC)cc1)O2 (centres unmarked) [I.5-4],>5%,–,–,–
"COC(=O)c1c(O)ccc2c1CC(c1ccc(OC)cc1)O2 (centres unmarked) [I.1-4, Methyl 2-(4-methoxyphenyl)-5-hydroxy-2,3-dihydro-1-benzofuran-4-carboxylate]",–,–,–,"EF (ZEAMX): efficacy, percentage reduction in the intensity of damage ([2]; dosage 25 g/ha): >5%; EF (BRSNS): efficacy = percentage reduction in the intensity of damage ([3]; dosage 100 g/ha): >5%; EF (ZEAMX): efficacy, percentage reduction in the intensity of damage ([5]; dosage 100 g/ha): >5%"
COC(=O)c1c(O)ccc2c1CC(c1ccc(Oc3ccccc3)cc1)O2 (centres unmarked) [I.1-41],>5%,–,>5%,"EF (TRZAS): efficacy, percentage reduction in the intensity of damage ([1]; dosage 6.25 g/ha): >5%; EF (ZEAMX): efficacy, percentage reduction in the intensity of damage ([2]; dosage 6.25 g/ha): >5%"
COC(=O)c1c(O)ccc2c1CC(c1ccc(OC)c(OC)c1)O2 (centres unmarked) [I.1-12],–,>5%,–,EF (BRSNS): efficacy = percentage reduction in the intensity of damage ([3]; dosage 25 g/ha): >5%
"COC(=O)c1c(O)ccc2c1C(C)C(c1ccc(OC)c(OC)c1)O2 (centres unmarked) [I.1-21, Methyl 2-(3,4-dimethoxyphenyl)-5-hydroxy-3-methyl-2,3-dihydro-1-benzofuran-4-carboxylate]",–,–,–,EF (BRSNS): efficacy = percentage reduction in the intensity of damage ([3]; dosage 25 g/ha): >5%
COC(=O)c1c(O)ccc2c1CC(C)(c1ccccc1)O2 (centres unmarked) [I.1-16],>5%,–,–,–
COc1ccc(C2Cc3c(ccc(O)c3C(=O)O)O2)cc1 (centres unmarked) [I.2-4],–,–,–,EF (BRSNS): efficacy = percentage reduction in the intensity of damage ([3]; dosage 250 g/ha): >5%
COC(=O)c1c(O)ccc2c1CC(c1cccc(OC)c1)O2 (centres unmarked) [I.1-3],–,–,–,"EF (TRZAS): efficacy, percentage reduction in the intensity of damage ([4]; dosage 250 g/ha): >5%"
COC(=O)c1c(O)ccc2c1CC(C)(c1ccc3ccccc3c1)O2 (centres unmarked) [I.1-49],>5%,–,–,–
COC(=O)c1c(OS(=O)(=O)C(F)(F)F)ccc2c1CC(c1ccc(OC)cc1)O2 (centres unmarked) [I.16-4],–,–,>5%,–
COC(=O)c1c(O)ccc2c1CC(c1ccc(OC(C)=O)cc1)O2 (centres unmarked) [I.1-40],–,>5%,>5%,"EF (TRZAS): efficacy, percentage reduction in the intensity of damage ([1]; dosage 25 g/ha): >5%; EF (ZEAMX): efficacy, percentage reduction in the intensity of damage ([2]; dosage 25 g/ha): >5%"
COC(=O)c1c(O)ccc2c1CC(c1ccc3ccccc3c1)O2 (centres unmarked) [I.1-48],>5%,–,–,"EF (ZEAMX): efficacy, percentage reduction in the intensity of damage ([5]; dosage 250 g/ha): >5%"
COC(=O)c1c(O)ccc2c1CC(c1ccc(OCc3ccccc3)c(OC)c1)O2 (centres unmarked) [I.1-35],–,>5%,>5%,"EF (TRZAS): efficacy, percentage reduction in the intensity of damage ([1]; dosage 25 g/ha): >5%; EF (ZEAMX): efficacy, percentage reduction in the intensity of damage ([2]; dosage 25 g/ha): >5%; EF (BRSNS): efficacy = percentage reduction in the intensity of damage ([3]; dosage 25 g/ha): >5%"
CCOC(=O)c1c(O)ccc2c1C(C)C(c1ccc(OC)c(OC)c1)O2 (centres unmarked) [I.4-21],>5%,–,–,–
COC(=O)c1c(O)ccc2c1CC(c1ccc(OC(C)(C)C)cc1)O2 (centres unmarked) [I.1-32],–,>5%,>5%,EF (BRSNS): efficacy = percentage reduction in the intensity of damage ([3]; dosage 25 g/ha): >5%
